{"source": "patent US20250333410A1", "about": "“COMPOUND FOR INHIBITING OR DEGRADING BCL6 AND USE THEREOF IN PHARMACEUTICS” (XIZANG HAISCO PHARMACEUTICAL CO., LTD., priority 2022, published 2025)", "key": {"[1]": {"biological_target": "T1, Bcl6 (Homo sapiens (Human), UniProt P41182)", "test": "Bcl-6 protein degradation experiment in Farage cells", "type": "cell-based", "conditions": "24 hours", "method": "2. Bcl-6 Protein Degradation Experiment in Farage Cells\n(§1) Farage cells purchased from ATCC were placed in an RPMI-1640 complete medium (containing 10% fetal bovine serum, 100 U/mL penicillin and 100 μg/mL streptomycin) and cultured at 37° C. and 5% CO2. The cells in the logarithmic growth phase were collected, and the cell suspension was adjusted to an appropriate density with the culture medium and added to a 6-well cell culture plate at a volume of 1 mL/well. The compounds to be tested were prepared to 2-fold the final concentration, 1 mL of the compounds at different concentrations were added to administration wells, a medium containing 0.2% DMSO was added to control wells, and the plate was incubated at 37° C. for 24 hours. The cells were collected into a 1.5 mL centrifuge tube, 25 μL of RIPA lysis buffer (containing 1× protease inhibitor cocktail) was added, and the cells were lysed on ice for 15 minutes and centrifuged at 12000 rpm/min at 4° C. for 10 minutes. The supernatant was collected and the protein content was determined using the BCA method. The protein sample to be tested was diluted to 0.8 mg/mL, Bcl6 was detected using a fully automated protein expression quantitative analyzer (ProteinSimple), and the internal reference protein was R-actin (both antibodies were from CST). The software (Compass for SW) of the fully automated protein expression quantitative analyzer was used to process the raw data and calculate the peak area and the Bcl6 expression rate relative to the control group. DC50 values were calculated using a four-parameter non-linear fitting model in Graphpad 8.3.0 software."}, "[2]": {"test": "Pharmacokinetic test in mice", "type": "in vivo, ICR mice", "conditions": "i.g. 5 mg/kg", "method": "3. Pharmacokinetic Test in Mice\n1.1 Experimental animal: male ICR mice, 25-30 g, 6 mice/compound, purchased from Chengdu Ddossy Experimental Animals Co., Ltd.\n1.2 Experimental design: on the day of the experiment, the ICR mice were randomly grouped according to their body weights. The animals were fasted but with water available for 12 to 14 h one day before the administration, and were fed 4 h after the administration."}, "[3]": {"biological_target": "T1, Bcl6", "test": "Bcl-6 protein degradation experiment in OCI-LY1 cells", "type": "cell-based", "conditions": "24 hours", "method": "4. Bcl-6 Protein Degradation Experiment in OCI-LY1 Cells\nas §1, with “OCI-LY1” for “Farage”, “DSMZ” for “ATCC”, “IMDM” for “RPMI-1640”, “penicillin,” for “penicillin and”, “streptomycin and 50 µM mercaptoethanol)” for “streptomycin)”, “[…]” for “μL”"}, "[4]": {"test": "Pharmacokinetic test in rats", "type": "in vivo, SD rats", "conditions": "i.g. 5 mg/kg; for AUC(0-t): male, SD, rat, po, rats plasma", "method": "5. Pharmacokinetic Test in Rats\nExperimental objective: in this experiment, a single dose of each test compound was administered to SD rats intravenously and intragastrically, and the concentrations of the test compounds in plasma of rats were measured to evaluate the pharmacokinetic characteristics of the test compounds in rats.\nExperimental animal: male SD rats, 200-220 g, 6-8 weeks old, 6 rats/compound, purchased from Chengdu Ddossy Experimental Animals Co., Ltd.\nExperimental method: on the day of the experiment, the SD rats were randomly grouped according to their body weights. The animals were fasted but with water available for 12 to 14 h one day before the administration, and were fed 4 h after the administration.\nSampling: Before and after the administration, 0.1 mL of blood was taken from the orbits under isoflurane anesthesia and placed in an EDTAK2 centrifuge tube. Centrifugation was carried out at 5000 rpm at 4° C. for 10 min, and the plasma was collected.\nThe plasma collection time points for IV&PO groups were 0, 5 min, 15 min, 30 min, 1 h, 2 h, 4 h, 7h, and 24 h.\nBefore analysis and detection, all samples were stored at −60° C. The samples were analyzed quantitatively by LC-MS/MS. PGP-3212J"}, "[5]": {"biological_target": "hERG potassium ion channel (Homo sapiens (Human), UniProt Q12809)", "sequence (Q12809 whole entry)": "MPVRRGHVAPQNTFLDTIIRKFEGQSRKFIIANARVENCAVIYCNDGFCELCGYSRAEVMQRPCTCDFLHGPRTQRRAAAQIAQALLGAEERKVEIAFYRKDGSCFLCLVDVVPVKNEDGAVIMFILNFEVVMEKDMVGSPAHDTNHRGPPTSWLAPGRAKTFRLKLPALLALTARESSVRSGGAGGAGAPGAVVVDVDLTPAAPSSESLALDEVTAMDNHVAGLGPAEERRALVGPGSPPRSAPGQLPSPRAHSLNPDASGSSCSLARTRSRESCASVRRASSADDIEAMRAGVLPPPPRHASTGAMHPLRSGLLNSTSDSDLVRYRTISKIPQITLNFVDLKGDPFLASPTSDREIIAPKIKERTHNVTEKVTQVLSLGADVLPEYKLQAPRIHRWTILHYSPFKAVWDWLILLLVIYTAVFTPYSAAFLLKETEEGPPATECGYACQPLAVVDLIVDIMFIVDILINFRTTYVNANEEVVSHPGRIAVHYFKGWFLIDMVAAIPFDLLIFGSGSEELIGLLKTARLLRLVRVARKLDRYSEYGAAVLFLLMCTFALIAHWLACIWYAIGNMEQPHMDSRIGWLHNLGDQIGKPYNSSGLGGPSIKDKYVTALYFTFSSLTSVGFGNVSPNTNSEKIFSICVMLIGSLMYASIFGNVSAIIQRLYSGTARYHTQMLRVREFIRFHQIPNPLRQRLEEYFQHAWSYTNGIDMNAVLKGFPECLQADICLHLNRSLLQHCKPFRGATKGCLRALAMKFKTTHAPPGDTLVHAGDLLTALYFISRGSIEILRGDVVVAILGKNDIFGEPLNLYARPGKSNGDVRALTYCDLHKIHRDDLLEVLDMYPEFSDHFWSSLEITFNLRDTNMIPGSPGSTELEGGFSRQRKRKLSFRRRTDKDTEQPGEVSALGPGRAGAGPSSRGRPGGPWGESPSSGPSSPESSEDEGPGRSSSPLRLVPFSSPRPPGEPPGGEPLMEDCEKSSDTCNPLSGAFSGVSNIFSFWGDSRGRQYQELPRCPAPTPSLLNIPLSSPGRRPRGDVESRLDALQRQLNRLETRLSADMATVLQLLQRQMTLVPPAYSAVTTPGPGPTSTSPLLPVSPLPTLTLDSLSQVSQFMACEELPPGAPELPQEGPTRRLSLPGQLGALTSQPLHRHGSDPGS", "test": "Test for hERG potassium ion channel (manual patch-clamp, CHO cells)", "type": "cell-based", "conditions": "CHO cells stably expressing hERG, whole cell patch-clamp; read-out: IC50 of inhibitory effects on hERG potassium channel current", "source_text": "8. Test for hERG Potassium Ion Channel\nExperimental platform: electrophysiological manual patch-clamp system\nCell line: Chinese hamster ovary (CHO) cell lines stably expressing hERG potassium ion channel\nExperimental method: in CHO (Chinese Hamster Ovary) cells stably expressing hERG potassium channel, the whole cell patch-clamp technique was used to record hERG potassium channel current at room temperature. The glass microelectrode was made of a glass electrode blank (BF150-86-10, Sutter) by a puller. The tip resistance after filling the liquid in the electrode was about 2-5 MΩ. The glass microelectrode can be connected to the patch-clamp amplifier by inserting the glass microelectrode into an amplifier probe. The clamping voltage and data recording were controlled and recorded by the pClamp 10 software through a computer. The sampling frequency was 10 kHz, and the filtering frequency was 2 kHz. After the whole cell records were obtained, the cells were clamped at −80 mV, and the step voltage that induced the hERG potassium current (IhERG) was depolarized from −80 mV to +20 mV for 2 s, then repolarized to −50 mV, and returned to −80 mV after 1 s. This voltage stimulation was given every 10 s, and the administration process was started after the hERG potassium current was confirmed to be stable (at least 1 minute). The compound was administered for at least 1 minute at each test concentration, and at least 2 cells (n≥2) were tested at each concentration.\nData processing: data analysis processing was carried out by using pClamp 10, GraphPad Prism 5 and Excel software. The inhibition degree of hERG potassium current (peak value of hERG tail current induced at −50 mV) at different compound concentrations was calculated by the following formula: […]\nwhere Inhibition % represents the percentage of inhibition of hERG potassium current by the compound, and I and Io represent the amplitude of hERG potassium current after and before the administration, respectively.\nCompound IC50 was calculated using GraphPad Prism 5 software by fitting according to the following equation: […]\nAmong the equation, X represents the Log value of the tested concentration of the test sample, Y represents the inhibition percentage at the corresponding concentration, and Bottom and Top represent the minimum and maximum inhibition percentage, respectively."}}}
{"molecule": "CNC(=O)COc1cc2cc(Nc3nc(N4CCN(CC5CCN(c6ccc(C7CCC(=O)NC7=O)cc6)CC5)CC4)ncc3Cl)ccc2n(C)c1=O", "note": "(stereo not shown) [Compound 8]", "values": [{"measurement": "DC50", "setting": "[1]", "value": "< 10", "unit": "nM"}, {"measurement": "AUC(0-t)", "setting": "[2]; male, ICR, mouse, po, mice plasma", "value": "> 1000", "unit": "ng·h/mL"}, {"measurement": "F", "setting": "[2]; mice", "value": ">50", "unit": "%"}, {"measurement": "DC50", "setting": "[3]", "value": "< 100", "unit": "nM"}, {"measurement": "DC50", "setting": "[3]; listed as compound 8", "value": "< 5", "unit": "nM"}, {"measurement": "AUC(0-t)", "setting": "[4]", "value": "> 1000", "unit": "ng·h/mL"}, {"measurement": "F", "setting": "[4]; rats", "value": ">50", "unit": "%"}, {"measurement": "IC50", "setting": "[5]", "value": "> 40000", "unit": "nM"}]}
{"molecule": "[2H]C([2H])([2H])NC(=O)COc1cc2cc(Nc3nc(N4CCC(O[C@H]5C[C@H](N6CCN7c8cc(F)c(C9CCC(=O)NC9=O)cc8CC[C@H]7C6)C5)CC4)ncc3Cl)ccc2n(C([2H])([2H])[2H])c1=O", "note": "(stereo partly shown) [Trifluoroacetate of compound 71]", "values": [{"measurement": "DC50", "setting": "[1]", "value": "< 10", "unit": "nM"}, {"measurement": "AUC(0-t)", "setting": "[4]", "value": "> 1000", "unit": "ng·h/mL"}, {"measurement": "IC50", "setting": "[5]", "value": "> 40000", "unit": "nM"}]}
{"molecule": "[2H]C([2H])([2H])NC(=O)COc1cc2cc(Nc3nc(N4CCC(O[C@H]5C[C@H](N6CCN7c8cc(F)c(C9CCC(=O)NC9=O)cc8CC[C@H]7C6)C5)CC4)ncc3Cl)ccc2n(C)c1=O", "note": "(stereo partly shown) [Trifluoroacetate of compound 72]", "values": [{"measurement": "DC50", "setting": "[1]", "value": "< 10", "unit": "nM"}, {"measurement": "AUC(0-t)", "setting": "[4]", "value": "> 1000", "unit": "ng·h/mL"}, {"measurement": "IC50", "setting": "[5]", "value": "> 40000", "unit": "nM"}]}
{"molecule": "[2H]C([2H])([2H])n1c(=O)c(OCC(=O)NC)cc2cc(Nc3nc(N4CCC(O[C@H]5C[C@H](N6CCN7c8cc(F)c(C9CCC(=O)NC9=O)cc8CC[C@H]7C6)C5)CC4)ncc3Cl)ccc21", "note": "(stereo partly shown) [Trifluoroacetate of compound 73]", "values": [{"measurement": "DC50", "setting": "[1]", "value": "< 10", "unit": "nM"}, {"measurement": "AUC(0-t)", "setting": "[4]", "value": "> 1000", "unit": "ng·h/mL"}, {"measurement": "IC50", "setting": "[5]", "value": "> 40000", "unit": "nM"}]}
{"molecule": "CCn1c(=O)c(OCC(=O)NC)cc2cc(Nc3nc(N4CCC(O[C@H]5C[C@H](N6CCN7c8cc(F)c(C9CCC(=O)NC9=O)cc8CC[C@@H]7C6)C5)CC4)ncc3Cl)ccc21", "note": "(stereo partly shown) [Trifluoroacetate of compound 74]", "values": [{"measurement": "DC50", "setting": "[1]", "value": "< 10", "unit": "nM"}, {"measurement": "AUC(0-t)", "setting": "[4]", "value": "> 1000", "unit": "ng·h/mL"}]}
{"molecule": "CNC(=O)COc1cc2cc(Nc3nc(N4CCC(O[C@H]5C[C@H](N6CCn7c(cc8cc(C9CCC(=O)NC9=O)c(F)cc87)C6)C5)CC4)ncc3Cl)ccc2n(C(C)C)c1=O", "note": "(stereo partly shown) [Trifluoroacetate of compound 78]", "values": [{"measurement": "DC50", "setting": "[1]", "value": "< 10", "unit": "nM"}, {"measurement": "AUC(0-t)", "setting": "[4]", "value": "> 1000", "unit": "ng·h/mL"}, {"measurement": "IC50", "setting": "[5]", "value": "> 40000", "unit": "nM"}]}
